Tested on: T1, histamine H1 receptor
T1 construct: gene HRH1; native receptor in isolated ileal segments
Assay: organ bath, antagonism of histamine-induced contraction of isolated ileum; double reciprocal analysis
Design: species or system Suncus murinus

Question: With `O=C(O)COCCN1CCN(C(c2ccccc2)c2ccc(Cl)cc2)CC1` (stereo not shown) [cetirizine] as the compound, how does the Kb read?
Answer: 8.4 pKb

Source: paper PMC5470052, “Brain Activation by H1 Antihistamines Challenges Conventional View of Their Mechanism of Action in Motion Sickness: A Behavioral, c-Fos and Physiological Study in Suncus murinus (House Musk Shrew)” (Frontiers in Physiology, 2017)
